Active and inactive are the calls of the source. No cut-off for these calls is given here.
Columns and labels:
HepG2 [1] = assay: Induction of apoptosis in human HepG2 cells assessed as early apoptotic cells by measuring yellowish green coloured nucleus at IC50 incubated for 24 hrs by EtBr/AO staining based fluorescence microscopic analysis; assay type: functional, cell-based
MDA-MB-231 [2] = assay: Induction of apoptosis in human MDA-MB-231 cells assessed as viable cells at IC50 incubated for 72 hrs by Alexa Fluor488-annexin V/PI staining based flow cytometric analysis (Rvb= 99.4 %); assay type: functional
[3] = Tmax in Wistar rat at 5 mg/kg, po measured upto 72 hrs by HPLC-MS analysis; assay type: ADME, organism-based; conditions: in vivo
[4] = Toxicity in Wistar rat assessed as effect on relative weight of spleen at 5 to 2000 mg/kg, po and measured on day 15; assay type: organism-based; conditions: in vivo, 360 h, dose 5-2000 mg/kg, time 15 day
HepG2 [5] = assay: Induction of apoptosis in human HepG2 cells assessed as necrotic cells by measuring intense red fluorescence at IC50 incubated for 24 hrs by Alexa Fluor488-annexin V/PI staining based fluorescence analysis; assay type: functional, cell-based
[6] = Toxicity in female Wistar rat assessed as apathy occurence at 2000 mg/kg, po observed for 48 hrs; assay type: organism-based; conditions: in vivo
MDA-MB-231 [7] = assay: Induction of apoptosis in human MDA-MB-231 cells assessed as early apoptotic cells at IC50 incubated for 72 hrs by Alexa Fluor488-annexin V/PI staining based flow cytometric analysis (Rvb= 0.6 %); assay type: functional
[8] = Inhibition of VEGFR2 expression in human HUVEC assessed as mean fluorescence intensity at IC50 incubated for 48 hrs by fluorescence microscopic analysis (reference value: 1.448 +/- 0.01); assay type: functional
HepG2 [9] = assay: Cytotoxicity against human HepG2 cells assessed as reduction in cell viability incubated for 24 hrs by MTT assay; assay type: functional, cell-based
[10] = Toxicity in Wistar rat assessed as effect on SGPT level at 5 to 2000 mg/kg, po and measured on day 15; assay type: organism-based; conditions: in vivo, 360 h, dose 5-2000 mg/kg, time 15 day
[11] = Toxicity in Wistar rat assessed as effect on water consumption at 5 to 2000 mg/kg, po and observed for 14 days; assay type: organism-based; conditions: in vivo, 336 h, dose 5-2000 mg/kg, time 14 day
HUVEC [12] = assay: Induction of apoptosis in human HUVEC assessed as early apoptotic cells at IC50 incubated for 48 hrs by annexin V-FITC and PI staining based flow cytometry (reference value: <1%); assay type: functional
[13] = Toxicity in Wistar rat assessed as effect on creatinine level in serum at 5 to 2000 mg/kg, po and measured on day 15; assay type: organism-based; conditions: in vivo, 360 h, dose 5-2000 mg/kg, time 15 day
MDA-MB-231 [14] = assay: Induction of apoptosis in human MDA-MB-231 cells assessed as necrotic cells at IC50 incubated for 72 hrs by Alexa Fluor488-annexin V/PI staining based flow cytometric analysis (Rvb= 0.0 %); assay type: functional
[15] = Toxicity in Wistar rat assessed as toxic signs at 5 to 300 mg/kg, po and observed for 14 days; assay type: organism-based; conditions: in vivo, 336 h, dose 5-300 mg/kg, time 14 day
HepG2 [16] = assay: Inhibition of epithelial-mesenchymal transition in TGF-beta-induced human HepG2 cells assessed as E-cadherin expression at IC50 incubated for 48 hrs by flow cytometry analysis (reference value: 2.92 %); assay type: functional; design: scale not given: the % may be the effect or the level left
HepG2 [17] = assay: Induction of apoptosis in human HepG2 cells assessed as early apoptotic cells by measuring green fluorescence at IC50 incubated for 24 hrs by Alexa Fluor488-annexin V/PI staining based fluorescence analysis; assay type: functional, cell-based
[18] = Toxicity in Wistar rat assessed as normal ovary with primary to tertiary developing follicles and mature follicles at 2000 mg/kg, po and measured on day 15 by microscopic analysis; assay type: organism-based; conditions: in vivo, 360 h, time 15 day
MCF7 = assay: Antimigratory activity against human MCF7 cells assessed as wound healing at IC50 incubated for 24 hrs by inverted microscopic analysis (reference value: 27.64 %); assay type: functional
[19] = Toxicity in Wistar rat assessed as mortality of organism at 5 to 2000 mg/kg, po and observed for 14 days; assay type: organism-based; conditions: in vivo, 336 h, dose 5-2000 mg/kg, time 14 day
[20] = Toxicity in Wistar rat assessed as effect on relative weight of lungs at 5 to 2000 mg/kg, po and measured on day 15; assay type: organism-based; conditions: in vivo, 360 h, dose 5-2000 mg/kg, time 15 day
MDA-MB-231 [21] = assay: Induction of apoptosis in human MDA-MB-231 cells assessed as late apoptotic cells at IC50 incubated for 72 hrs by Alexa Fluor488-annexin V/PI staining based flow cytometric analysis (Rvb= 0.0 %); assay type: functional
[22] = AUMC (0 to infinity) in Wistar rat at 5 mg/kg, po by HPLC-MS analysis; assay type: ADME, organism-based; conditions: in vivo
[23] = Toxicity in Wistar rat assessed as effect on total bilirubin level in serum at 5 to 2000 mg/kg, po and measured on day 15; assay type: organism-based; conditions: in vivo, 360 h, dose 5-2000 mg/kg, time 15 day
[24] = AUC (0 to infinity) in Wistar rat at 5 mg/kg, po by HPLC-MS analysis; assay type: ADME, organism-based; design: route oral, time infinity, dose 5 mg/kg; conditions: in vivo
Chorioallantoic membrane [25] = assay: Antiangiogenic activity in chicken fertilized egg chorioallantoic membrane assessed as reduction in membrane growth at 0.01 uM measured upto 72 hrs by CAM assay relative to control; assay type: functional, tissue-based; conditions: Gallus gallus, time hrs <=72
[26] = Toxicity in Wistar rat assessed as normal renal parenchyma with intact renal tubules and glomeruli without inflammatory or pathological changes at 2000 mg/kg, po and measured on day 15 by microscopic analysis; assay type: organism-based; conditions: in vivo, 360 h, time 15 day
[27] = Inhibition of VEGFR2 expression in human HUVEC at IC50 incubated for 48 hrs by fluorescence microscopic analysis relative to control; assay type: functional
HepG2 [28] = assay: Induction of apoptosis in human HepG2 cells assessed as late apoptotic cells by measuring green fluorescence membrane with fragmented red nucleus at IC50 incubated for 24 hrs by Alexa Fluor488-annexin V/PI staining based fluorescence analysis; assay type: functional, cell-based
HepG2 [29] = assay: Inhibition of epithelial-mesenchymal transition in TGF-beta-induced human HepG2 cells assessed as SNAIL expression at IC50 incubated for 48 hrs by flow cytometry analysis (reference value: 97.78 %); assay type: functional; design: scale not given: the % may be the effect or the level left
HUVEC [30] = assay: Antiproliferative activity against human HUVEC assessed as reduction in cell viability incubated for 24 hrs by MTT assay; assay type: functional, cell-based
HepG2 [31] = assay: Induction of apoptosis in human HepG2 cells assessed as apoptotic index at IC50 incubated for 24 hrs by EtBr/AO staining based fluorescence microscopic analysis (reference value: 1.99 %); assay type: functional
[32] = Toxicity in Wistar rat assessed as effect on relative weight of kidney at 5 to 2000 mg/kg, po and measured on day 15; assay type: organism-based; conditions: in vivo, 360 h, dose 5-2000 mg/kg, time 15 day
[33] = Toxicity in Wistar rat assessed as normal cardiac muscles and cardiac fibers with intact length without inflammatory changes at 2000 mg/kg, po and measured on day 15 by microscopic analysis; assay type: organism-based; conditions: in vivo, 360 h, time 15 day
Chorioallantoic membrane [34] = assay: Antiangiogenic activity in chicken fertilized egg chorioallantoic membrane measured upto 72 hrs by CAM assay; assay type: functional, tissue-based; conditions: Gallus gallus, dose 0.01-2 µM, time hrs <=72
[35] = AUC (0 to 72 hrs) in Wistar rat at 5 mg/kg, po measured upto 72 hrs by HPLC-MS analysis; assay type: ADME, organism-based; design: route oral, dose 5 mg/kg, time <=72; conditions: in vivo
[36] = Half life in Wistar rat at 5 mg/kg, po measured upto 72 hrs by HPLC-MS analysis; assay type: ADME, organism-based; conditions: in vivo

## CC(=O)Nc1ccc(Oc2cccc3c(NC(=O)Nc4cccc(C(F)(F)F)c4)cccc23)cc1
HepG2 [1]
  Activity: Active
MDA-MB-231 [2]
  Activity: 27.3%
[3]
  Tmax: 6 h
[4]
  Activity: Non-Toxic
HepG2 [5]
  Activity: Active
[6]
  Activity: Toxic
MDA-MB-231 [7]
  Activity: 68.2%
[8]
  Flu intensity: 1
HepG2 [9]
  inhibition: Dose-dependent effect
HepG2 [9]; HepG2, 24 h
  IC50: 0.258 µM
[10]
  Activity: Non-Toxic
[11]
  Activity: Non-Toxic
HUVEC [12]
  Activity: 37.53%
[13]
  Activity: Non-Toxic
MDA-MB-231 [14]
  Activity: 0.3%
[15]
  Activity: Non-Toxic
HepG2 [16]
  Activity: 46.7%
HepG2 [17]
  Activity: Active
[18]
  Activity: Non-Toxic
MCF7
  Activity: 3.02%
[19]
  Activity: Non-Toxic
[20]
  Activity: Non-Toxic
MDA-MB-231 [21]
  Activity: 4.3%
[22]
  AUMC: 8929.284 ug/ml.hr^2
[23]
  Activity: Non-Toxic
[24]
  AUC(0-inf): 625 µg·h/mL
Chorioallantoic membrane [25]
  inhibition: > 50%
[26]
  Activity: Non-Toxic
[27]
  fold change (FC): 0.37
HepG2 [28]
  Activity: Active
HepG2 [29]
  Activity: 10.26%
HUVEC [30]
  IC50: 9.64 µM
  inhibition: Dose-dependent effect
HepG2 [31]
  Activity: 86.66%
[32]
  Activity: Non-Toxic
[33]
  Activity: Non-Toxic
Chorioallantoic membrane [34]
  Activity: Dose-dependent effect
[35]
  AUC(0-t): 621 µg·h/mL
[36]
  half-life: 11.9 h

— ChEMBL document CHEMBL4706603, “Discovery of VEGFR-2 inhibitors exerting significant anticancer activity against CD44+ and CD133+ cancer stem cells (CSCs): Reversal of TGF-β induced epithelial-mesenchymal transition (EMT) in hepatocellular carcinoma” (Eur J Med Chem, 2020)
